Measurements as given in patent publication US20250186489A1, “REPROGRAMMING OF CELLS TO TYPE 1 CONVENTIONAL DENDRITIC CELLS OR ANTIGEN-PRESENTING CELLS” (Asgard Therapeutics AB, priority 2021, published 2025).

What was measured:
[1] = system: human embryonic fibroblasts (HEF); test: cDC1 reprogramming efficiency of human embryonic fibroblasts, flow cytometry for CD45+HLA-DR+ cells at day 9; assay type: cell-based; details: for effect on cDC1 reprogramming efficiency when co-expressed with PU.1, IRF8 and BATF3: HEF co-transduced with TetO-PIB, M2rtTA and the individual factor
Experimental: HEFs, HDFs and Clec9a-tdTomato MEFs were seeded at a density of 40,000 cells per well and MSCs at a density of 50,000 cells per well on 0.1% gelatin coated 6-well plates. On the following day, cells were incubated overnight with either a ratio of 1:1 TetO-PIB and M2rtTA, SFFV-PIB-GFP or SFFV-GFP lentiviral particles in media supplemented with 8 μg/ml polybrene. Cells were transduced overnight twice in consecutive days and media replaced in between. After the second transduction, media was replaced by normal growth media (day 0). When using TetO-PIB, media was supplemented with Dox (1 μg/ml). Media was changed every 2-3 days for the duration of cultures. When stated, media was supplemented with LPS (100 ng/ml, Enzo), Poly I:C (25 μg/ml, InvivoGen) and R848 (3 μg/ml, InvivoGen) overnight. Cytokines were added at day 2 and kept for the duration of cultures; For reprogramming in xeno-free conditions, MSCs were cultured in X-Vivo 15 (Lonza) after transduction and media changed every 2-3 days for the duration of cultures.
For the analysis of surface marker expression, human and mouse cells were dissociated and incubated with antibodies diluted in PBS 5% FBS at 4° C. for 30 minutes in the presence of mouse or rat serum (1/100, GeneTex), for human and mouse cells respectively, to block unspecific binding. Cells were washed and resuspended in PBS 5% FBS and analyzed in BD FACSCanto II or BD LSRFortessa flow cytometers (BD Biosciences), unless stated otherwise. DAPI was used for dead cell exclusion. Flow cytometry data were analyzed using FlowJo software (FLOWJO, LLC, version 10.6.1). All flow cytometry analyses were performed in live single cell gates.
Coding regions of ID2, TXNIP, ZFP36, PLEK, SUB1, JUNB, CREM, KLF4, MXD1, LITAF, IRF7, FOS, NMI, TFEC, SP110, IRF5, STAT2, BATF, ZNF267, IRF1, RELB and BATF2 were individually cloned in the pFUW-TetO plasmid. […] Reprogramming efficiency was evaluated by flow cytometry in HEFs 9 days after transcription factor overexpression.
17 human hematopoietic cytokines including inflammatory mediators (Table 3) were individually added to the culture media 2 days after PIB induction in HEFs, and reprogramming efficiency was measured at day 9. Changes in reprogramming efficiency were analysed using both single cytokines and combinations of two or three cytokines.
The impact on reprogramming efficiency after a combination of cytokine treatment and SFFV-driven PIB induction was evaluated. The scPred system was used for integration with “natural” DCs. See previous Examples for experimental details.

[2] = system: Clec9a-tdTomato mouse embryonic fibroblasts (MEFs); test: Replacement of PU.1 by homologs in cDC1 reprogramming of Clec9a-tdTomato MEFs; assay type: cell-based; details: for tdTomato^+ cells (Clec9a reporter activation): factor in combination with IRF8 and BATF3
Experimental: Coding regions of SPIB and SPIC were individually cloned in the pFUW-TetO plasmid. Lentiviral particles encoding each individual transcription factor or the reverse tetracycline transactivator M2rtTA under the control of constitutively active human ubiquitin C promoter (pFUW-UbC-M2rtTA) were used for co-transduction (Rosa et al. 2018). Reprogramming efficiency was evaluated by flow cytometry in Clec9a-tdTomato mouse embryonic fibroblasts (MEFs) 9 days after transcription factor overexpression.

[3] = HEF with SFFV-PIB in the presence of anti-inflammatory cytokine
[4] = HEF with Dox-inducible PIB, individual cytokine

TGF-β
fold reduction of reprogramming efficiency [1, 3]: 2 fold | impact on CD40 expression in hiDCs [1, 3]: did not impact CD40 expression

TNF-α
fold increase in reprogramming efficiency versus condition without cytokines ([1]; HEF with Dox-inducible PIB): 3 fold

IL-6: cytokine
fold increase in reprogramming efficiency versus condition without cytokines ([1]; HEF with Dox-inducible PIB): 2.5 fold

SPIC: ETS-domain transcription factor, PU.1 homolog, SEQ ID NO: 25
reporter activation by the factor alone [2]: not able to activate the DC-specific reporter | tdTomato^+ cells (Clec9a reporter activation) [2]: 1.46±0.73% | ability to replace PU.1 in cDC1 reprogramming ([2]; with IRF8 and BATF3): could replace PU.1

IL-1β: cytokine
fold increase in reprogramming efficiency versus condition without cytokines ([1]; HEF with Dox-inducible PIB): 3 fold

GM-CSF: cytokine
impact on reprogramming efficiency [1, 4]: did not impact reprogramming efficiency

SPIB: ETS-domain transcription factor, PU.1 homolog, SEQ ID NO: 23
reporter activation by the factor alone [2]: not able to activate the DC-specific reporter | tdTomato^+ cells (Clec9a reporter activation) [2]: about 8.14±1.16% | tdTomato^+ cells co-expressing CD45 and MHC-II ([2]; factor in combination with IRF8 and BATF3, gated in tdTomato^+): 33.63±3.76% | ability to replace PU.1 in cDC1 reprogramming ([2]; with IRF8 and BATF3): could replace PU.1 | fold increase in tdTomato^+ cells co-expressing CD45 and MHC-II in comparison to PU.1 ([2]; with IRF8 and BATF3): 2 fold

B1: Oncostatin M: cytokine (protein, UniProt P13725 26-221, looked up)
Oncostatin-M: AAIGSCSKEYRVLLGQLQKQTDLMQDTSRLLDPYIRIQGLDVPKLREHCRERPGAFPSEETLRGLGRRGFLQTLNATLGCVLHRLADLEQRLPKAQDLERSGLNIEDLEKLQMARPNILGLRNNIYCMAQLLDNSDTAEPTKAGRGASQPPTPTPASDAFQRKLEGCRFLHGYHRFMHSVGRVFSKWGESPNRSRR
fold increase in reprogramming efficiency versus condition without cytokines ([1]; HEF with Dox-inducible PIB): 4 fold

B2: BATF: nuclear basic leucine zipper transcription factor, SEQ ID NO: 19 (protein, listed as Homo sapiens)
chain: MPHSSDSSDSSFSRSPPPGKQDSSDDVRRVQRREKNRIAAQKSRQRQTQKADTLHLESEDLEKQNAALRKEIKQLTEELKYFTSVLNSHEPLCSVLAASTPSPPEVVYSAHAFHQPHVSSPRFQP
modifications: basic leucine zipper transcriptional factor ATF-like [Homo sapiens], peptide sequence
effect on cDC1 reprogramming efficiency when co-expressed with PU.1, IRF8 and BATF3 [1]: increased cDC1 reprogramming efficiency

B3: IL-10: anti-inflammatory cytokine (protein, UniProt P22301 19-178, looked up)
Interleukin-10: SPGQGTQSENSCTHFPGNLPNMLRDLRDAFSRVKTFFQMKDQLDNLLLKESLLEDFKGYLGCQALSEMIQFYLEEVMPQAENQDPDIKAHVNSLGENLKTLRLRLRRCHRFLPCENKSKAVEQVKNAFNKLQEKGIYKAMSEFDIFINYIEAYMTMKIRN
impact on CD40 expression in hiDCs [1, 3]: did not impact CD40 expression | impact on reprogramming efficiency [1, 3]: did not impact reprogramming efficiency

B4: FLT3L: cytokine (protein, UniProt P49771 27-235, looked up)
Fms-related tyrosine kinase 3 …: TQDCSFQHSPISSDFAVKIRELSDYLLQDYPVTVASNLQDEELCGGLWRLVLAQRWMERLKTVAGSKMQGLLERVNTEIHFVTKCAFQPPPSCLRFVQTNISRLLQETSEQLVALKPWITRQNFSRCLELQCQPDSSTLPPPWSPRPLEATAPTAPQPPLLLLLLLPVGLLLLAAAWCLHWQRTRRRTPRPGEQVPPVPSPQDLLLVEH
impact on reprogramming efficiency [1, 4]: did not impact reprogramming efficiency

B5: IRF7: transcription factor of the interferon regulatory factor family, SEQ ID NO: 21 (protein, listed as Homo sapiens)
chain: MPVPERPAAGPDSPRPGTRRAAPRVLFGEWLLGEISSGCYEGLQWLDEARTCFRVPWKHFARKDLSEADARIFKAWAVARGRWPPSSRGGGPPPEAETAERAGWKTNFRCALRSTRRFVMLRDNSGDPADPHKVYALSRELCWREGPGTDQTEAEAPAAVPPPQGGPPGPFLAHTHAGLQAPGPLPAPAGDKGDLLLQAVQQSCLADHLLTASWGADPVPTKAPGEGQEGLPLTGACAGGPGLPAGELYGWAVETTPSPGPQPAALTTGEAAAPESPHQAEPYLSPSPSACTAVQEPSPGALDVTIMYKGRTVLQKVVGHPSCTFLYGPPDPAVRATDPQQVAFPSPAELPDQKQLRYTEELLRHVAPGLHLELRGPQLWARRMGKCKVYWEVGGPPGSASPSTPACLLPRNCDTPIFDFRVFFQELVEFRARQRRGSPRYTIYLGFGQDLSAGRPKEKSLVLVKLEPWLCRVHLEGTQREGVSSLDSSSLSLCLSSANSLYDDIECFLMELEQPA
modifications: Interferon regulatory factor 7 [Homo sapiens], peptide sequence
effect on cDC1 reprogramming efficiency when co-expressed with PU.1, IRF8 and BATF3 [1]: increased cDC1 reprogramming efficiency

B6: IL-4: cytokine (protein, UniProt P05112 25-153, looked up)
Interleukin-4: HKCDITLQEIIKTLNSLTEQKTLCTELTVTDIFAASKNTTEKETFCRAATVLRQFYSHHEKDTRCLGATAQQFHRHKQLIRFLKRLDRNLWGLAGLNSCPVKEANQSTLENFLERLKTIMREKYSKCSS
impact on reprogramming efficiency [1, 4]: did not impact reprogramming efficiency
